One assay has as its target T1, Ca^2+ channel (Rattus norvegicus, UniProt P22002).
T1 construct: from tissue; host or cells: rat heart membrane preparation
As to the kind of experiment: verapamil binding study in rat heart membrane preparation. The conditions noted are these: [^3H]desmethoxyverapamil binding. How it is done: The adverse effect on Ca^2+ channel binding affinity is determined by verapamil binding study in rat heart membrane preparation. More specifically, verapamil binding study is performed as previously described by Reynolds et al, J. Pharmacol. Exp. Ther., 237, 731 (1986). Briefly, incubations are initiated by the addition of tissue to tubes containing 0.25 nM [^3H]desmethoxyverapamil and various concentrations of compounds (total volume 1 ml). Nonspecific binding is defined as radioligand binding remaining in the presence of 3-10 µM methoxyverapamil.

In a further assay the test system is gerbils. As to the kind of experiment: [Sar^9, Met(O2)^11]substance P-induced tapping test. The assay is classed as in vivo. The conditions noted are these: Meriones unguiculatus, at 0.3mg/kg scoring. How it is done: More specifically, gerbils are lightly anesthetized with ether and the skull surface is exposed. […] Following injection, gerbils are placed in 1 L beaker individually and monitored for repetitive hind paw tapping. Some compounds prepared in the following Examples were tested in accordance with these testing methods.

Assay [1] has as its target T2, substance P receptor sites in IM-9 cells (Homo sapiens, UniProt P25103).
T2 construct: endogenous in cells; host or cells: human IM-9 cells
As to the kind of experiment: IM-9 binding assay (inhibition of [^3H]SP binding). The following applies: inhibition of [^3H]SP binding to human IM-9 cells. How it is done: The activity of the compounds of the present invention, as substance P antagonists, is determined by their ability to inhibit the binding of substance P at its receptor sites in IM-9 cells employing radioactive ligands. The substance P antagonist activity of the herein described compounds is evaluated by using the standard assay procedure described by D. G. Payan et al as reported in J. Immunology, 133, 3260 (1984). This method essentially involves determining the concentration of the individual compound required to reduce by 50% the amount of radiolabeled substance P ligands at their receptor sites in said isolated cow tissues or IM-9 cells, thereby affording characteristic IC50 values for each compound tested. More specifically, inhibition of [^3H]SP binding to human IM-9 cells by compounds are determined in assay buffer (50 mM Tris-HCl (pH 7.4), 1 mM MnCl2, 0.02 % bovine serum albumin, bacitracin (40 µg/ml), leupeptin (4 µg/ml), chymostatin (2 µg/ml) and phosphoramidon (30 µg/ml)). The reaction is initiated by the addition of cells to assay buffer containing 0.56 nM [^3H]SP and various concentrations of compounds (total volume; 0.5 ml) and allowed to incubate for 120 min at 4 °C. […] Nonspecific binding is defined as the radioactivity remaining in the presence of 1 µM SP. The filters are placed into tubes and counted using liquid scintillation counter.

pIC50: −log10 of the molar value. Where a name gives a salt, the structure may show the parent alone.

T2 sequence (P25103 whole entry): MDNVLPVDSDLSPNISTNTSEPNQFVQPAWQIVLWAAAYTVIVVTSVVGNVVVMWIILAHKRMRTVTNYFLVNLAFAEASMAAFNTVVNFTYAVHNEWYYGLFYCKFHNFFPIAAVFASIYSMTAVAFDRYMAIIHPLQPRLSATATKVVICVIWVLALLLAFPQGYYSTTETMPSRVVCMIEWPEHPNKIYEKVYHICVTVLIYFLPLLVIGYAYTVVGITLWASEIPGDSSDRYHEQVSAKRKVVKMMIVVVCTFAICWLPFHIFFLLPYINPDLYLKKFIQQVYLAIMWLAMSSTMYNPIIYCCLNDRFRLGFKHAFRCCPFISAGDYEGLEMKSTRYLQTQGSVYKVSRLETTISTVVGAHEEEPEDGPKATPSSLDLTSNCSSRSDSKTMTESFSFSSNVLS
T1 sequence (P22002 whole entry, other chains not shown): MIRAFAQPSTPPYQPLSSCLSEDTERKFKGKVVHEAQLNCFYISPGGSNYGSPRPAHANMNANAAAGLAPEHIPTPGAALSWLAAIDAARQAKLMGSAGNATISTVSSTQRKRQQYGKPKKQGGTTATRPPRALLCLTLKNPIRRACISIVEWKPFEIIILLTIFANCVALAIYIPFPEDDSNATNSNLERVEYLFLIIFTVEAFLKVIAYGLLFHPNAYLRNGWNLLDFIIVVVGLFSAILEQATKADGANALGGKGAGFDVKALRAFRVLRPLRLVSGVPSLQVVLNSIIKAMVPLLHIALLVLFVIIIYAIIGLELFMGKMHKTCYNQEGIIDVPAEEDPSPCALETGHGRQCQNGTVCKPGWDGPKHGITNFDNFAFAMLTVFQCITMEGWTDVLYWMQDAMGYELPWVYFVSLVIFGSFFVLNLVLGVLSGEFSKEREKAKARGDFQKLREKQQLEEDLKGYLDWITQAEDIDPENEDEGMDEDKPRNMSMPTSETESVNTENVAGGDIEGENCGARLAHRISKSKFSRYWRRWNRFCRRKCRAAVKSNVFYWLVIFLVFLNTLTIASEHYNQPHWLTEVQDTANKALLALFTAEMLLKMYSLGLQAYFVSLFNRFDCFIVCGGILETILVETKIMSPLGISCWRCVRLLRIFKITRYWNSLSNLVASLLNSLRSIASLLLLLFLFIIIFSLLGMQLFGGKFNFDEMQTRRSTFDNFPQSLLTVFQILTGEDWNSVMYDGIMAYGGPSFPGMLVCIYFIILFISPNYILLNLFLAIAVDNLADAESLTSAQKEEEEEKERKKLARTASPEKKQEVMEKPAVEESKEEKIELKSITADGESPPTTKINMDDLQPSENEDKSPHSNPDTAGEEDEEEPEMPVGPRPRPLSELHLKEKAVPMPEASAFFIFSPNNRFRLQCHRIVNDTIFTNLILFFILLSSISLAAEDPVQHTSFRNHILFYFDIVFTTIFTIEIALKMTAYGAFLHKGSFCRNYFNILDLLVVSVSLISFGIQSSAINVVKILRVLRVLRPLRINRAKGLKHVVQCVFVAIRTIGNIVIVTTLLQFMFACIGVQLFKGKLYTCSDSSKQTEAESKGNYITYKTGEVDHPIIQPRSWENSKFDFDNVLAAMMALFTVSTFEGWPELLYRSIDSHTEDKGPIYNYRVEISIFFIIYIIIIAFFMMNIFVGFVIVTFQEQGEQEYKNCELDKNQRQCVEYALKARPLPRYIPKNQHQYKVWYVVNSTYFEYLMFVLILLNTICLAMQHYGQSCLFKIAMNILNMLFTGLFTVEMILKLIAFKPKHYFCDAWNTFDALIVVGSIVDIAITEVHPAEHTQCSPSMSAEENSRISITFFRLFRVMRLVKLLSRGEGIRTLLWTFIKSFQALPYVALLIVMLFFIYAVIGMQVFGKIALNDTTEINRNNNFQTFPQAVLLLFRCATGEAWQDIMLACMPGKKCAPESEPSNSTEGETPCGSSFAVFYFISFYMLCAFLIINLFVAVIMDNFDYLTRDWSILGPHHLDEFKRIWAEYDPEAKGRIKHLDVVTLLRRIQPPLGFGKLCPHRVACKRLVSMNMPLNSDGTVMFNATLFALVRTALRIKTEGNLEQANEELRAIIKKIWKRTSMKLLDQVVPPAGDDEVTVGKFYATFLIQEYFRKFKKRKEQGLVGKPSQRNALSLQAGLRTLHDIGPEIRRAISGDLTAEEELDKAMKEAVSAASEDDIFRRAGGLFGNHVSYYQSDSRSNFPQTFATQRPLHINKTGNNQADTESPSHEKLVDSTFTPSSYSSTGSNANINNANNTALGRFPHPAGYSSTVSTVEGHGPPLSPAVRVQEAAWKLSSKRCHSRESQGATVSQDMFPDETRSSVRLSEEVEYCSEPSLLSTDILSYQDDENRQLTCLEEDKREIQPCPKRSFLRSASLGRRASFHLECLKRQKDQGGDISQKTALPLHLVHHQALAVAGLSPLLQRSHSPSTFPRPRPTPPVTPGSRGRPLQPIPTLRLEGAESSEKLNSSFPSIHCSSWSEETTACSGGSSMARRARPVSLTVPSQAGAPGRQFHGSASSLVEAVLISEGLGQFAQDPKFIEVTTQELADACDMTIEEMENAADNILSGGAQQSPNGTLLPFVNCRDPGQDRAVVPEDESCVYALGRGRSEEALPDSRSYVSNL
T1 sequence (P54290 25-944 partner limits assumed, other chains not shown): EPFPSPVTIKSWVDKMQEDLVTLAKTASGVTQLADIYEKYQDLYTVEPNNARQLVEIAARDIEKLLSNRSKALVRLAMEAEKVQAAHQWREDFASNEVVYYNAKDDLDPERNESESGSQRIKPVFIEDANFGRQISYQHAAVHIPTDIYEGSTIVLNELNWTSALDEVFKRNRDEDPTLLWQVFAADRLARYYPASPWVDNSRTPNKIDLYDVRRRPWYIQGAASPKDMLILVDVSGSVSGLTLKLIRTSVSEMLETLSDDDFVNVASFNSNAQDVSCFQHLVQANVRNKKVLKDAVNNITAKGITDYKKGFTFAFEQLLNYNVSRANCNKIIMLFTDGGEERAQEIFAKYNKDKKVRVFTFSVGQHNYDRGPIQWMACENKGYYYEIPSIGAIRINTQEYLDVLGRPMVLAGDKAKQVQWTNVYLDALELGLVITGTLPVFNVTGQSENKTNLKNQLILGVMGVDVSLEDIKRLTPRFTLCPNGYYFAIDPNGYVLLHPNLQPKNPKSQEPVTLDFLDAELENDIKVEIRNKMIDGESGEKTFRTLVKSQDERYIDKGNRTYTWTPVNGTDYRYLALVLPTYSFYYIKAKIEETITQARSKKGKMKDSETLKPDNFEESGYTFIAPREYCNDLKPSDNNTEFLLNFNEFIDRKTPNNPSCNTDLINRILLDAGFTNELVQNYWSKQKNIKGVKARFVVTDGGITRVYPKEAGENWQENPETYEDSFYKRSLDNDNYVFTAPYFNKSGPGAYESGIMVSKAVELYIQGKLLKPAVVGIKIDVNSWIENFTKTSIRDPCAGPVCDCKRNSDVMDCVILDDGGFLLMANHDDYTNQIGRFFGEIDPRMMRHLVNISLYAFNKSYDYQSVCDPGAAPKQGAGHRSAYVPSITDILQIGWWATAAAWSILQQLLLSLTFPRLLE
T1 sequence (P54290 945-1091 partner limits assumed, other chains not shown): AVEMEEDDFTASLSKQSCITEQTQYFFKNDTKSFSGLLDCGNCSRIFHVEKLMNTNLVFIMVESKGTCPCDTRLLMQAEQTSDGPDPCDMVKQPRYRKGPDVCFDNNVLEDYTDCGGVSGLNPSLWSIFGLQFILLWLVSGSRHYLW

Turning to `COc1cc2c(cc1CN[C@H]1CCCN[C@H]1c1ccccc1)N(C)C(=O)CC2` [Compound 21, (2S,3S)-3-(6-Methoxy-1-methyl-2-oxo-1,2,3,4-tetrahydroquinolin-7-yl)methylamino-2-phenylpiperidine dihydrochloride], the values for the pIC50 (on Ca^2+ channel; in assay [1]) were below 5.52 and above 10.00, respectively. In addition, in the assay on gerbils, the inhibition at 0.3 mg/kg was found to be 52%.

In general, pIC50 refers to the negative decadic logarithm of the IC50, by convention in mol/L. By inhibition is commonly meant the change of the read-out against control, counted positive when it falls. The low end stands for a weak effect, the high end for a strong effect.
